Results: US5208344A, “Naphthalenepropionic acid derivatives as anti-inflammatory/antiallergic agents” (American Home Products Corporation, priority 1991, dated 1993)
Where a name gives a salt, the structure may show the parent alone.

Columns and labels:
Type in all cases: cell-based
cyclooxygenase = assay: inhibition of synthesis of cyclooxygenase products TxB2 and PGE2 (rat polymorphonuclear leukocytes); details: rat PMN; for % Inhibition of CO (as PGE2): negative = potentiation of PGE2 synthesis; for IC50: read-out: IC50 (inhibition of CO, as PGE2)
Experimental: (§1) Peritoneal PMN are obtained from female Wistar rats (150-250 g) that received an i.p. injection of 6% glycogen (10 ml). After 24 hours, rats are killed by CO2 asphysiation and peritoneal cells are harvested by peritoneal lavage using Ca^++ and MG^++ free Hanks' balanced salt solution (HBSS). The peritoneal exudate is centrifuged at 400 g for 10 minutes. After centrifugation, the lavaged fluid is removed and the cell pellet is resuspended in HBSS containing Ca^++ and MG^++ and 10 mM L-cysteine at a concentration of 2×10^7 cells/ml. To 1 ml portions of cell suspension, test drugs or vehicle are added and incubated at 37° C. for 10 minutes. Following this preincubation, the calcium ionophore (10 μM), a23187, is added together with 0.5 μM [14 C] arachidonic acid and further incubated for 10 minutes. The reaction is stopped by the addition of ice cold water (3 ml) and acidifying to pH 3.5. Lipoxygenase products are then extracted twice into diethyl ether. The pooled ether extracts are evaporated to dryness under nitrogen and the residue is redissolved in a small volume of methanol and spotted on aluminum backed pre-coated thin layer chromatographic plates. The samples are then cochromatographed with authentic reference 5-HETE in the solvent system - hexane: ether: acetic acid (50:50:3). After chromatography, the areas associated with 5-HETE standard are identified by autoradiography, cut out and quantitated by liquid scintillation.
However, in order to determine cyclooxygenase activity, the samples are cochromatographed with authentic reference TxB2 and PGE2 in the solvent system ethyl acetate: formic acid (80:1) and the upper phase of ethyl acetate: isooctane: acetic acid: water (110:50:20:100). After chromatography, the areas associated with the TxB2 and PGE2 standards are identified by autoradiography, cut out and quantitated by liquid scintillation techniques.

5-lipoxygenase [1] = target: T1, 5-lipoxygenase (Rattus norvegicus, UniProt P12527); assay: inhibition of 5-HETE synthesis by rat glycogen elicited polymorphonuclear leukocytes; details: rat PMN; for inhibition at 10 µM: negative = potentiation of 5-HETE synthesis
T1 construct: Peritoneal PMN are obtained from female Wistar rats (150-250 g); endogenous in cells; host or cells: rat glycogen-elicited peritoneal polymorphonuclear leukocytes, intact
T1 sequence (P12527 1-673): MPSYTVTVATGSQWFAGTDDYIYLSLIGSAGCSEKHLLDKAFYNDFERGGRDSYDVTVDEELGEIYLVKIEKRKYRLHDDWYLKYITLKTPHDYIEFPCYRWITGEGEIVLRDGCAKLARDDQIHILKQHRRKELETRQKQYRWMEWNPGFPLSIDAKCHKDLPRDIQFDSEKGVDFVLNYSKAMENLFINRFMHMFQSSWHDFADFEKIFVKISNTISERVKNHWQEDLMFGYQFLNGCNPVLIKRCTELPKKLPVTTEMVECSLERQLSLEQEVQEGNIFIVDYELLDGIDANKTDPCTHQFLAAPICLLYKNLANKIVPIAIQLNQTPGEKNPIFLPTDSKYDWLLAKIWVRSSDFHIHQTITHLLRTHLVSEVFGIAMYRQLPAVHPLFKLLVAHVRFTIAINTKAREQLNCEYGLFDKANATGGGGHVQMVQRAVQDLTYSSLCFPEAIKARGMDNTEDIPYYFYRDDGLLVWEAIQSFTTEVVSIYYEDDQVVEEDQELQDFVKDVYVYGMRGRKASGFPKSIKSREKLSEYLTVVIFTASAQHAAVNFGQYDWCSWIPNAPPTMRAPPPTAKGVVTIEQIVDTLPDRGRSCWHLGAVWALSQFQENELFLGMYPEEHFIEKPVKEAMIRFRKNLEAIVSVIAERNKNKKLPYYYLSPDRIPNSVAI
Experimental: The assay of this Example measures the ability of the compounds of the invention to inhibit the synthesis of 5-HETE by rat glycogen elicited polymorphonuclear leukocytes.
as §1

5-lipoxygenase [2] = target: T2, 5-lipoxygenase (Homo sapiens, UniProt P09917); assay: inhibition of 5-lipoxygenase in human whole blood (LTB4)
T2 construct: Blood is obtained in 50-100 ml quantities from male donors; endogenous in cells; host or cells: human whole blood (leukocytes) from male donors
T2 sequence (P09917 1-674): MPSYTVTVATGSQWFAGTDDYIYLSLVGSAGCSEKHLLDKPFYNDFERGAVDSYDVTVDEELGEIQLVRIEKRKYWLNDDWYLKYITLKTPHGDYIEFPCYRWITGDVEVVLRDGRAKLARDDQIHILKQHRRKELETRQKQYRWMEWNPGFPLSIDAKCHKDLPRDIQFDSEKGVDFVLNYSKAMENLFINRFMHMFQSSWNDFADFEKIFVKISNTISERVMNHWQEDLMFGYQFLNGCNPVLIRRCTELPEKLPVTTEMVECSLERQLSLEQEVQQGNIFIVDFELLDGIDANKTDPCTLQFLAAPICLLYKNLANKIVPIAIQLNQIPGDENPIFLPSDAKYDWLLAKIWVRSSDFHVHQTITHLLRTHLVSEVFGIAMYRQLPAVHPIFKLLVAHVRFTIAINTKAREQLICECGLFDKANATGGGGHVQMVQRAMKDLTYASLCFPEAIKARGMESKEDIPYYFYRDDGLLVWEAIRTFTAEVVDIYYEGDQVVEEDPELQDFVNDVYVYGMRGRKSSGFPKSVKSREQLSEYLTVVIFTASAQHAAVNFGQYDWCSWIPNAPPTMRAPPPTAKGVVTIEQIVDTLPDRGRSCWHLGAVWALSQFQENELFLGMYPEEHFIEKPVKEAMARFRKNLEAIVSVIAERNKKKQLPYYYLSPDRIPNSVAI
Experimental: The assay of this Example measures the ability of the compounds tested to inhibit 5-lipxygenase in human whole blood.
Blood is obtained in 50-100 ml quantities from male donors. White blood cell counts and differentials are made. Two ml of blood are placed in a 15 ml polypropylene test tube. Compounds are solubilized in dimethylsulfoxide and diluted 1:10 in 10% bovine serum albumin in phosphate buffered saline, pH 7.4 resulting in a final dimethylsulfoxide concentration of 0.1% in the blood. Then, compounds are added to the blood in a shaking water bath at 37° C. for 10 minutes prior to the addition of 30 μM calcium ionophore (A23187; Sigma). After ionophore administration, whole blood samples are mixed and incubated for 20 minutes at 37° C. in a shaking water bath. Incubation is terminated by placing samples in an ice bath and immediately adding ethylene glycol-bis-(β-aminoethyl ether)-N,N,N',N'-tetraacetic acid (10 mM). Samples are mixed and centrifuged at 1200×g for 15 minutes at 4° C. Preparation of samples for evaluation by RIA or ELISA is carried out by the following protocol. Plasma is removed from sample tubes, placed in 15 ml polypropylene test tubes containing 8 ml methanol, and then vortexed to precipitate protein. Samples are stored at -70° C. overnight. The next day, samples are centrifuged at 200×g for 15 minutes at 4° C. to pellet the precipitate. Samples are dried in a Savant speed vac concentrator, reconstituted to original volume with ice cold RIA or ELISA buffer, and stored at -70° C. until assayed. The assay for eicosanoids (LTB4, TxB2, and PGE2) is performed as described by the manufacturer of the [^3 H]-RIA kit or ELISA kit (LTB4 -Amersham, TxB2 and PGE2 - Caymen Chemical).
The total eicosanoid level in 2 ml of blood is calculated and reported as ng/10^6 neutrophils. Significance is determined by a one-way analysis of variance with least significant difference (LSD) comparisons to control (p≤0.05) and IC50 's (μM) are determined by regression analysis (Finney, 1978). Drug effects are expressed as percent change form control values.
Compounds tested in vitro are solubilized in dimethylsulfoxide and diluted 1:10 in 10% bovine serum albumin in phosphate buffer saline resulting in a final dimethylsulfoxide concentration of 0.1% in the blood.

[3] = read-out: % Inhibition of 5-LO (as 5-HETE)

Compound: CC(C(=O)O)c1ccc2cc(OCc3nc4ccccc4s3)ccc2c1 (stereo not drawn) [Example 5, α-Methyl-6-(2-benzothiazolylmethoxy)-2-naphthaleneacetic acid]
- % Inhibition of CO (as PGE2) (cyclooxygenase; 10 μM): -35%
- inhibition at 10 µM (5-lipoxygenase [1]; [3]): 90%

Compound: CC(C(=O)O)c1ccc2cc(OCc3ccc4ccccc4c3)ccc2c1 (stereo not drawn) [Example 6, α-Methyl-6-(2-naphthalenylmethoxy)-2-naphthaleneacetic acid]
- % Inhibition of CO (as PGE2) (cyclooxygenase; 10 μM): -15%
- inhibition at 10 µM (5-lipoxygenase [1]; [3]): 100%

Compound: C[C@@H](C(=O)O)c1ccc2cc(OCc3ccc4ccccc4n3)ccc2c1 [Example 8, R-(-)-α-Methyl-6-(2-quinolinylmethoxy)-2-naphthaleneacetic acid]
- % Inhibition of CO (as PGE2) (cyclooxygenase; 0.1 μM): -7%
- inhibition at 0.1 µM (5-lipoxygenase [1]; 0.1 μM, read-out: % Inhibition of 5-LO (as 5-HETE)): 33%

Compound: CC(C(=O)O)c1ccc2cc(OCc3csc(-c4ccccc4)n3)ccc2c1 (stereo not drawn) [Example 9, α-Methyl-6-[(2-phenyl-4-thiazolyl)methoxy]-2-naphthaleneacetic acid]
- % Inhibition of CO (as PGE2) (cyclooxygenase; 10 μM): -11%
- inhibition at 10 µM (5-lipoxygenase [1]; [3]): 86%

Compound: CCCCCOc1ccc2cc(C(C)C(=O)O)ccc2c1 (stereo not drawn) [Example 12, α-Methyl-6-(pentyloxy)-2-naphthaleneacetic acid]
- % Inhibition of CO (as PGE2) (cyclooxygenase; 10 μM): -13%
- inhibition at 10 µM (5-lipoxygenase [1]; [3]): 48%

Compound: CC(C)=CCOc1ccc2cc(C(C)C(=O)O)ccc2c1 (stereo not drawn) [Example 14, α-Methyl-6-(3-methyl-2-butenoxy)-2-naphthaleneacetic acid]
- % Inhibition of CO (as PGE2) (cyclooxygenase; 10 μM): -15%
- inhibition at 10 µM (5-lipoxygenase [1]; [3]): 81%

Compound: CC(C(=O)O)c1ccc2cc(OCc3ccc4ccc(Cl)cc4n3)ccc2c1 (stereo not drawn) [Example 18, α-Methyl-6-[(7-chloro-2-quinolinyl)-methoxy]-2-naphthaleneacetic acid]
- IC50 (cyclooxygenase): > 50 µM
- IC50 (5-lipoxygenase [1]; read-out: IC50 (inhibition of 5-LO, as 5-HETE)): 11.4 µM

Compound: CC(C(=O)O)c1ccc2c(Br)c(OCc3ccc4ccccc4n3)ccc2c1 (stereo not drawn) [Example 19, α-Methyl-5-bromo-6-(2-quinolinylmethoxy)-2-naphthaleneacetic acid]
- % Inhibition of CO (as PGE2) (cyclooxygenase; 10 μM): -21%
- inhibition at 10 µM (5-lipoxygenase [1]; [3]): 82%

Compound: CC(C(=O)O)c1ccc2cc(OCC=Cc3ccccc3)ccc2c1 (stereo not drawn) [Example 20, α-Methyl-6-[(3-phenyl-2-propenyl)oxy]-2-naphthaleneacetic acid]
- % Inhibition of CO (as PGE2) (cyclooxygenase; 10 μM): 14%
- inhibition at 10 µM (5-lipoxygenase [1]; [3]): 89%

Compound: O=C(O)Cc1ccc2cc(OCc3ccc4ccccc4n3)ccc2c1 [Example 21, 6-(2-Ouinolinylmethoxy)-2-naphthaleneacetic Acid]
- IC50 (cyclooxygenase): > 250 µM
- inhibition at 10 µM (5-lipoxygenase [1]; [3]): 95%

Compound: C[C@H](C(=O)O)c1ccc2cc(OCc3nc4ccccc4s3)ccc2c1 [Example 33, S-(+)-α-Methyl-6-(2-benzothiazolylmethoxy)-2-naphthaleneacetic acid]
- inhibition at 25 µM (5-lipoxygenase [2]; 25 μM, human whole blood): 54%

Compound: CC(C)(C(=O)O)c1ccc2cc(OCc3nc4ccccc4s3)ccc2c1 [Example 34, α,α-Dimethyl-6-(2-benzothiazolylmethoxy)-2-naphthaleneacetic acid]
- inhibition at 25 µM (5-lipoxygenase [2]; 25 μM, human whole blood): 13%

Compound: C[C@H](C(=O)O)c1ccc2cc(OCc3csc(-c4ccccc4)n3)ccc2c1 [Example 35, S-(+)-α-Methyl-6-[(2-phenyl-4-thiazolyl)-methoxy]-2-naphthaleneaceticacid]
- inhibition at 25 µM (5-lipoxygenase [2]; 25 μM, human whole blood): 28%

Compound: CC(C)(NC(=O)NO)c1ccc2cc(OCc3nc4ccccc4s3)ccc2c1 [Example 37, N-[1-[6-(2-Benzothiazolylmethoxy)-2-naphthalenyl]-1-methyethyl]-N'-hydroxyurea]
- inhibition at 25 µM (5-lipoxygenase [2]; 25 μM, human whole blood): 43%
- IC50 (5-lipoxygenase [2]; human whole blood): 50.8 µM

Compound: C[C@H](C(=O)N(C)O)c1ccc2cc(OCc3nc4ccccc4s3)ccc2c1 [Example 41A, S-(+)-N-Hydroxy-α,N-dimethyl-6-(2-benzothiazolylmethoxy)-2-naphthaleneacetamide sodium salt hydrate]
- % Inhibition of LTB4 (5-lipoxygenase [2]; 25 μM, human whole blood, sodium salt hydrate): 89%
- IC50 (5-lipoxygenase [2]; human whole blood, sodium salt hydrate): 12.2 µM

Compound: C[C@H](C(=O)O)c1ccc2cc(OCc3ccccn3)ccc2c1 [Example 42, S-(+)-α-Methyl-6-(2-pyridinylmethoxy)-2-naphthaleneacetic acid one tenth hydrate]
- inhibition at 25 µM (5-lipoxygenase [2]; 25 μM, human whole blood): 11%

Compound: C[C@H](C(=O)O)c1ccc2cc(OCc3nc4ccccc4n3C)ccc2c1 [Example 43, S-(α)α-Methyl-6-[(1-methyl-1H-benzimidazol-2-yl)-methoxy]-2-naphthaleneacetic acid]
- inhibition at 25 µM (5-lipoxygenase [2]; 25 μM, human whole blood): 12%

Compound: C[C@H](C(=O)O)c1ccc2cc(OCc3nc4ccccc4o3)ccc2c1 [Example 46, S-(+)-α-methyl-6-(2-benzoxazolylmethoxy)-2-naphthaleneacetic acid]
- inhibition at 25 µM (5-lipoxygenase [2]; 25 μM, human whole blood): 22%

Compound: CC(c1cc2ccccc2s1)N(O)C(N)=O (centres unmarked) [Example A-64077, reference compound]
- inhibition at 5 µM (5-lipoxygenase [2]; read-out: % Inhibition of LTB4): 72%

Compound: CC(C)c1ccc2c(c1)c(SC(C)(C)C)c(CC(C)(C)C(=O)O)n2Cc1ccc(Cl)cc1 [L-663,536, reference compound]
- inhibition at 3 µM (5-lipoxygenase [2]; 3 μM, human whole blood): 96%
